Experimental data reported in patent US20250108038A1 (priority 2023, published 2025).
Where “and” joins values, the source holds several entries; their conditions need not be identical. Identical values can stand only once.

Experiment: in vivo
Settings: for plasma concentration of Compound A: after Compound I-19 single PO 6.645 mg/kg
Experimental: Dose solutions were prepared freshly on each day of studies prior to dosing.
The animals were weighed immediately prior to dosing and the dose volume was calculated individually based the obtained body weight and the nominal dose volume. […] The nominal dose volume was 10 mL/kg in both studies.
Cage side observation was performed before and after dosing as well as at each scheduled sample collection time. The observation included appearance, posture, behavior, morbidity and mortality. Abnormal findings, if any, are required to be recorded in the study record and communicated with study director, veterinarian, and Supernus if necessary.
Approximately 40 μL blood was collected at each scheduled time point from saphenous veins. The actual sample collection time was within 1 min. of the nominal time for collections prior to or at 1 hour, and within 5% of the nominal values for collections post 1 hour.
The blood samples were placed in pre-labeled micro-centrifuge tubes containing K2EDTA as anticoagulant and kept on ice before they were processed to plasma within 30 minutes of collection by centrifugation at 4° C., 3000 g for 5 minutes. The plasma samples were stored at −70±10° C. until LC-MS/MS analysis.
Plasma concentrations below the LLOQ prior to Tmax were set to zero, and those after Tmax were excluded from PK calculation. The nominal dose and the nominal sample collection time were used for the calculation. The values of plasma concentrations and PK parameters are reported to three significant figures. The average values of each treatment group are presented as mean±SD.

[1] = after Compound I-19 IP 4.061 mg/kg, average
[2] = after Compound I-19 IP 4.061 mg/kg, mean±SD
[3] = after Compound I-19 PO 6.645 mg/kg, mean±SD
[4] = single IP Compound I-19 4.061 mg/kg, male CD-1 mice, individual animals
[5] = single IP Compound I-19 4.061 mg/kg, male CD-1 mice, mean

## Clc1ccc(C2(OCC3OCCO3)c3ccccc3C3=NCCN32)cc1 (centres unmarked) [Compound I-19]
IP 4.061 mg/kg, mean±SD
  AUC0-last of Compound I-19: 482 ± 92.9 ng·h/mL
  Cmax of Compound I-19: 373 ± 101 ng/mL
  MRT0-last of Compound I-19: 69 ± 24.4 min
  T1/2 of Compound I-19: 37.9 ± 16.2 min
  Tmax of Compound I-19: 25 ± 8.64 min
PO 6.645 mg/kg, mean±SD
  AUC0-last of Compound I-19: 2.04 ± 2.56 ng·h/mL
  Cmax of Compound I-19: 4.27 ± 3.1 ng/mL
  MRT0-last of Compound I-19: 21.9 ± 7.56 min
  Tmax of Compound I-19: 20 ± 8.64 min
[1]
  MRT0-last of Compound B: 186 min
  T1/2 of Compound B: 220 min
  Tmax of Compound B: 120 min
[2]
  AUC0-last of Compound A: 104 ± 36.7 ng·h/mL
  AUC0-last of Compound B: 120 ± 58.1 ng·h/mL
  Cmax of Compound A: 50.5 ± 20 ng/mL
  Cmax of Compound B: 30.7 ± 5.42 ng/mL
  MRT0-last of Compound A: 106 ± 27.2 min
  T1/2 of Compound A: 75 ± 18.8 min
  Tmax of Compound A: 40 ± 17.3 min
[3]
  AUC0-last of Compound A: 203 ± 45.2 ng·h/mL
  Cmax of Compound A: 158 ± 27.2 ng/mL
  MRT0-last of Compound A: 71.4 ± 4.14 min
  T1/2 of Compound A: 51.3 ± 10.4 min
  Tmax of Compound A: 20 ± 8.64 min
0.500 h, mean
  plasma concentration of Compound A: 126 ng/mL
1.00 h, individual mice, 6.645 mg/kg
  plasma concentration of Compound A: 123 ng/mL and 54.4 ng/mL and 83.2 ng/mL
1.00 h, mean
  plasma concentration of Compound A: 86.9 ng/mL
2.00 h, individual mice, 6.645 mg/kg
  plasma concentration of Compound A: 44.1 ng/mL and 31.3 ng/mL and 36.7 ng/mL
2.00 h, mean
  plasma concentration of Compound A: 37.4 ng/mL
4.00 h, individual mice, 6.645 mg/kg
  plasma concentration of Compound A: 5.24 ng/mL and 6.75 ng/mL and 8.65 ng/mL
4.00 h, mean
  plasma concentration of Compound A: 6.88 ng/mL
8.00 h, individual mice
  plasma concentration of Compound A: BQL
24.0 h, individual mice
  plasma concentration of Compound A: BQL
Male CD-1 mice, administered dosages (Compound A PO 5.102 mg/kg; Compound I-19 PO 6.645, IP 4.061 mg/kg)
  Clinical observation (tolerability): well tolerated
Single IP 4.061 mg/kg, 0.500 h, individual mice, 4.061 mg/kg
  plasma concentration of Compound I-19: 415 ng/mL and 311 ng/mL and 318 ng/mL
Single IP 4.061 mg/kg, 0.500 h, mean
  plasma concentration of Compound I-19: 348 ng/mL
Single IP 4.061 mg/kg, 1.00 h, individual mice, 4.061 mg/kg
  plasma concentration of Compound I-19: 196 ng/mL and 269 ng/mL and 201 ng/mL
Single IP 4.061 mg/kg, 1.00 h, mean
  plasma concentration of Compound I-19: 222 ng/mL
Single IP 4.061 mg/kg, 2.00 h, individual mice, 4.061 mg/kg
  plasma concentration of Compound I-19: 39.7 ng/mL and 100 ng/mL and 71.6 ng/mL
Single IP 4.061 mg/kg, 2.00 h, mean
  plasma concentration of Compound I-19: 70.4 ng/mL
Single IP 4.061 mg/kg, 4.00 h, mean
  plasma concentration of Compound I-19: 13.1 ng/mL
Single IP 4.061 mg/kg, 8.00 h, individual mice
  plasma concentration of Compound I-19: 1.39 ng/mL
Single IP 4.061 mg/kg, 8.00 h, individual mice, 4.061 mg/kg
  plasma concentration of Compound I-19: BQL
Single IP 4.061 mg/kg, 24.0 h, individual mice
  plasma concentration of Compound I-19: BQL
[4]
  AUC0-inf of Compound I-19: 444 ng·h/mL and 589 ng·h/mL and 417 ng·h/mL
  AUC0-last of Compound I-19: 443 ng·h/mL and 588 ng·h/mL and 414 ng·h/mL
  Cmax of Compound I-19: 489 ng/mL and 311 ng/mL and 318 ng/mL
  MRT0-inf of Compound I-19: 49.6 min and 97.2 min and 62.4 min
  MRT0-last of Compound I-19: 48.9 min and 96 min and 61.2 min
  T1/2 of Compound I-19: 27.1 min and 56.5 min and 29.9 min
  Tlast of Compound I-19: 4.00 h (2×) and 8.00 h
  Tmax of Compound I-19: 30 min
[5]
  AUC0-inf of Compound I-19: 483 ng·h/mL
  AUC0-last of Compound I-19: 482 ng·h/mL
  Cmax of Compound I-19: 373 ng/mL
  MRT0-inf of Compound I-19: 69.6 min
  MRT0-last of Compound I-19: 69 min
  T1/2 of Compound I-19: 37.9 min
  Tlast of Compound I-19: 5.33 h
  Tmax of Compound I-19: 25 min
Single PO 6.654 mg/kg (as titled), 0.500 h, mean
  plasma concentration of Compound I-19: 4.55 ng/mL
Single PO 6.654 mg/kg (as titled), 2.00 h, individual mice
  plasma concentration of Compound I-19: BQL
